According to patent US9512087B2, “Hybrid molecules containing pharmacophores of fluconazole as antifungal agents and their preparation” (Council for Scientific & Industrial Research, priority 2011, dated 2016):
In brackets after ≈: the same amount, converted by molar mass.

Assays:
Assay in all cases: Antifungal MIC, broth dilution
[1] = tested on: C. tropicalis ATCC 750; format: cell-based; conditions: Candida tropicalis, ATCC750, RPMI 1640 with MOPS, end point 48 hours, read-out: Ct01 MIC50
[2] = tested on: F. proliferatum ATCC 10052; format: cell-based, Fusarium proliferatum; conditions: Fusarium proliferatum, ATCC10052, RPMI 1640 with MOPS, end point 48 hours, read-out: Fp01 MIC50
Experimental: (§1) The compounds of Formula 1 were tested for antifungal activity against Candida albicans, Aspergillus niger and Fusarium proliferatum. In vitro evaluation of antifungal activity was performed by determining the minimum inhibitory concentration (MIC) following standard methods (CLSI: Reference method for broth dilution antifungal susceptibility testing of yeasts; Approved standard, second edition M27-A2, 2002; CLSI: Reference method for broth dilution antifungal susceptibility testing of filamentous fungi; Approved standard M38-A, 2002). Anti-fungal susceptibility testing of these anti-fungal compounds was done by broth dilution method using RPMI 1640 medium with MOPS buffer. Known anti-fungal agents like fluconazole and amphotericin-B were used as positive control. End points were determined after 48 hours visually and by using spectrophotometer wherever necessary. Different dilutions were tried and various sets of experiments performed. The activity parameters are enumerated in Table 5.

[3] = tested on: C. krusei ATCC 6258; format: cell-based; conditions: Pichia kudriavzevii, ATCC6258, RPMI 1640 with MOPS, end point 48 hours, read-out: Ck01 MIC50
[4] = tested on: A. fumigatus ATCC 46645; format: cell-based; conditions: Aspergillus fumigatus, ATCC46645, RPMI 1640 with MOPS, end point 48 hours, read-out: Afm01 MIC50
[5] = tested on: C. albicans ATCC 24433; format: cell-based, Candida albicans; conditions: Candida albicans, ATCC24433, RPMI 1640 with MOPS, end point 48 hours; for MIC80: read-out: Ca01 A: MIC80; for MIC50: read-out: Ca01 B: MIC50
Experimental: as §1

[6] = tested on: C. glabrata ATCC 90030; format: cell-based; conditions: Nakaseomyces glabratus, ATCC90030, RPMI 1640 with MOPS, end point 48 hours, read-out: Cg01 MIC50
[7] = tested on: A. niger ATCC 16404; format: cell-based, Aspergillus niger; conditions: Aspergillus niger, ATCC16404, RPMI 1640 with MOPS, end point 48 hours, read-out: An01 MIC50
Experimental: as §1

[8] = tested on: C. neoformans ATCC 34664; format: cell-based; conditions: Cryptococcus neoformans, ATCC34664, RPMI 1640 with MOPS, end point 48 hours, read-out: Cn01 MIC50

| SMILES | MIC50 [1] [µg/mL] | MIC50 [2] [µg/mL] | MIC50 [3] [µg/mL] | MIC50 [4] [µg/mL] | MIC80 [5] [µg/mL] | MIC50 [5] [µg/mL] | MIC50 [6] [µg/mL] | MIC50 [7] [µg/mL] | MIC50 [8] [µg/mL] |
| --- | --- | --- | --- | --- | --- | --- | --- | --- | --- |
| O=C(/C=C/c1ccc(Cl)cc1)c1ccc(OCC(O)(Cn2cncn2)c2ccc(F)cc2)cc1 (stereo not drawn) [Compound 1A-12] | 4 (≈ 8.37 µM) | > 4 | 4 (≈ 8.37 µM) | > 4 | 2 (≈ 4.18 µM) | 0.5 (≈ 1.05 µM) | 0.5 (≈ 1.05 µM) | > 4 | 0.5 (≈ 1.05 µM) |
| O=C(/C=C/c1ccc(OCC(O)(Cn2cncn2)c2ccc(F)cc2F)cc1)c1ccc(Cl)cc1Cl (stereo not drawn) [Compound 1A-22] | 1 (≈ 1.89 µM) | > 4 | 2 (≈ 3.77 µM) | > 4 | 0.25 (≈ 0.471 µM) | 0.12 (≈ 0.226 µM) | 0.5 (≈ 0.943 µM) | > 4 | 1 (≈ 1.89 µM) |
| O=C(/C=C/c1cccs1)c1ccc(OC[C@@](O)(Cn2cncn2)c2ccc(F)cc2F)cc1 [S-(+)-1A-13] | 2 (≈ 4.28 µM) | > 4 | > 4 | > 4 | 0.5 (≈ 1.07 µM) | 0.25 (≈ 0.535 µM) | 0.25 (≈ 0.535 µM) | > 4 | 4 (≈ 8.56 µM) |
| O=C(/C=C/c1cccs1)c1ccc(OCC(O)(Cn2cncn2)c2ccc(F)cc2F)cc1 (stereo not drawn) [Compound 1A-13] | 0.5 (≈ 1.07 µM) | > 8 | 8 (≈ 17.1 µM) | > 8 | 0.25 (≈ 0.535 µM) | 0.12 (≈ 0.257 µM) | 0.25 (≈ 0.535 µM) | > 8 | 1 (≈ 2.14 µM) |
| O=C(c1ccc(OCC(O)(Cn2cncn2)c2ccc(F)cc2F)cc1)C(Br)C(Br)c1ccc(Cl)cc1Cl (stereo not drawn) [Compound 1B-1, 2,3-Dibromo-3-(2,4-dichlorophenyl)-1-(4-(2-(2,4-difluorophenyl)-2-hydroxy-3-(1H-1,2,4-triazol-1-yl)propoxy)phenyl)propan-1-one] | 1 (≈ 1.45 µM) | > 8 | 2 (≈ 2.9 µM) | > 8 | 0.5 (≈ 0.724 µM) | 0.25 (≈ 0.362 µM) | 0.5 (≈ 0.724 µM) | > 8 | 0.5 (≈ 0.724 µM) |
| OC(/C=C/c1ccc(Cl)cc1Cl)c1ccc(OCC(O)(Cn2cncn2)c2ccc(F)cc2F)cc1 (stereo not drawn) [Compound 1C-1, (E)-3-(2,4-dichlorophenyl)-1-(4-(2-(2,4-difluorophenyl)-2-hydroxy-3-(1H-1,2,4-triazol-1-yl)propoxy)phenyl)prop-2-en-1-ol] | 1 (≈ 1.88 µM) | > 4 | 4 (≈ 7.51 µM) | > 4 | 0.5 (≈ 0.939 µM) | 0.5 (≈ 0.939 µM) | 0.25 (≈ 0.47 µM) | > 4 | 0.5 (≈ 0.939 µM) |

The remaining molecules from weak to strong by MIC50 [1], led by results:

| MIC50 [1] [µg/mL] | MIC50 [2] [µg/mL] | MIC50 [3] [µg/mL] | MIC50 [4] [µg/mL] | MIC80 [5] [µg/mL] | MIC50 [5] [µg/mL] | MIC50 [6] [µg/mL] | MIC50 [7] [µg/mL] | MIC50 [8] [µg/mL] | SMILES |
| --- | --- | --- | --- | --- | --- | --- | --- | --- | --- |
| 4 (≈ 8.45 µM) | > 4 | 4 (≈ 8.45 µM) | > 4 | 2 (≈ 4.22 µM) | 0.25 (≈ 0.528 µM) | 0.5 (≈ 1.06 µM) | > 4 | 0.5 (≈ 1.06 µM) | COc1ccc(/C=C/C(=O)c2ccc(OCC(O)(Cn3cncn3)c3ccc(F)cc3)cc2)cc1 (stereo not drawn) [Compound 1A-10] |
| 2 (≈ 4.39 µM) | > 4 | 1 (≈ 2.2 µM) | > 4 | 0.25 (≈ 0.549 µM) | 0.12 (≈ 0.263 µM) | 0.06 (≈ 0.132 µM) | > 4 | 0.5 (≈ 1.1 µM) | CCCCCC(=O)/C=C/c1ccc(OCC(O)(Cn2cncn2)c2ccc(F)cc2F)cc1 (stereo not drawn) [Compound 1A-26] |
| 2 (≈ 3.89 µM) | > 4 | > 4 | > 4 | 0.5 (≈ 0.972 µM) | 0.25 (≈ 0.486 µM) | 2 (≈ 3.89 µM) | > 4 | 4 (≈ 7.77 µM) | Cn1cc(/C=C/C(=O)c2ccc(OCC(O)(Cn3cncn3)c3ccc(F)cc3F)cc2)c2ccccc21 (stereo not drawn) [Compound 1A-16] |
| 0.5 (≈ 1.08 µM) | > 2 | > 2 | > 2 | 0.12 (≈ 0.26 µM) | 0.06 (≈ 0.13 µM) | 0.25 (≈ 0.542 µM) | > 2 | 1 (≈ 2.17 µM) | O=C(/C=C/c1ccccc1)c1ccc(OCC(O)(Cn2cncn2)c2ccc(F)cc2F)cc1 (stereo not drawn) [Compound 1A-1] |
